This passage reports IC50, inhibition and Ratio IC50 results from ChEMBL document CHEMBL1140703, “Design, synthesis, and biological evaluation of classical and nonclassical 2-amino-4-oxo-5-substituted-6-methylpyrrolo[3,2-d]pyrimidines as dual thymidylate synthase and dihydrofolate reductase inhibitors” (J Med Chem, 2008).

Bounds are passed on as bounds.

The target in experiment [1] is Thymidylate synthase (Escherichia coli, UniProt C3SWJ7). Nature of the experiment: Inhibition of Escherichia coli thymidylate synthase.
Chain of Thymidylate synthase (Escherichia coli, UniProt C3SWJ7) (C3SWJ7 whole entry): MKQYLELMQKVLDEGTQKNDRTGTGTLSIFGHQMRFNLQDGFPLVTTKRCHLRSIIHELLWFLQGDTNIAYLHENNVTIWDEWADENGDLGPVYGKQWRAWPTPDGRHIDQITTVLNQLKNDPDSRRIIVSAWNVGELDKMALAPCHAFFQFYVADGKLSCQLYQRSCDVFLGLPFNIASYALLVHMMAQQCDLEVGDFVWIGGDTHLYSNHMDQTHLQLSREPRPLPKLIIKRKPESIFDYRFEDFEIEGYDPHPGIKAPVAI
The nature of experiment [2]: Inhibition of Toxoplasma gondii thymidylate synthase.
Experiment [3] has as its system Escherichia coli. The experiment can be described thus: Inhibition of Escherichia coli DHFR at >[…] uM.
Experiment [4] has as its target T1, Dihydrofolate reductase (Homo sapiens, UniProt P00374).
T1 sequence (P00374 whole entry): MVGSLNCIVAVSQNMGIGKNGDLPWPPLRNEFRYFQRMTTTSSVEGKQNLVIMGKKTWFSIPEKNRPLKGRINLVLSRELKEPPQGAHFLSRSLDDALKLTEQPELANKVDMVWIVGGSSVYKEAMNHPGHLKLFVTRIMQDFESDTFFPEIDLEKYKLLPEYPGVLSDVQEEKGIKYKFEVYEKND

Experiment [5] is described as follows: Inhibition of Toxoplasma gondii DHFR.
Experiment [6] addresses Thymidylate synthase (Homo sapiens, UniProt P04818). Nature of the experiment: Inhibition of human thymidylate synthase.
A short description of experiment [7]: Inhibition of Escherichia coli DHFR.
Experiment [8] can be described thus: Selectivity ratio of IC50 for Toxoplasma gondii DHFR over IC50 for human recombinant DHFR.
In experiment [9] the target is Thymidylate synthase (Escherichia coli) (UniProt C3SWJ7). The experiment can be described thus: Inhibition of Escherichia coli thymidylate synthase at >20 uM.
Chain of Thymidylate synthase (Escherichia coli) (C3SWJ7 1-264): as the sequence (C3SWJ7 whole entry) above
Experiment [10] addresses T2, Dihydrofolate reductase (Homo sapiens) (UniProt P00374).
T2 sequence (whole entry): T1 sequence (P00374 whole entry)
The experiment can be described thus: Inhibition of human recombinant DHFR at >[…] uM.

In experiment [11] the test system is Toxoplasma gondii. Nature of the experiment: Inhibition of Toxoplasma gondii thymidylate synthase at >20 uM.
Experiment [12] relates to Toxoplasma gondii. The experiment can be described thus: Inhibition of Toxoplasma gondii thymidylate synthase at >[…] uM.
The target of experiment [13] is Thymidylate synthase (Escherichia coli) (UniProt C3SWJ7). The experiment can be described thus: Inhibition of Escherichia coli thymidylate synthase at >[…] uM.
Experiment [14] shares this target. The experiment can be described thus: Inhibition of Escherichia coli thymidylate synthase >[…] uM.
Experiment [15] has as its system Escherichia coli. Nature of the experiment: Inhibition of Escherichia coli DHFR at >30 uM.
The target in experiment [16] is T2, Dihydrofolate reductase (Homo sapiens). The experiment can be described thus: Inhibition of human recombinant DHFR at >62 uM.

As a reminder, the IC50 is the concentration at which inhibition is half-maximal. A high value points to weaker potency. As usually defined, the inhibition is the relative decrease from the control value, in per cent.

Chain of Thymidylate synthase (Homo sapiens, UniProt P04818) (P04818 whole entry): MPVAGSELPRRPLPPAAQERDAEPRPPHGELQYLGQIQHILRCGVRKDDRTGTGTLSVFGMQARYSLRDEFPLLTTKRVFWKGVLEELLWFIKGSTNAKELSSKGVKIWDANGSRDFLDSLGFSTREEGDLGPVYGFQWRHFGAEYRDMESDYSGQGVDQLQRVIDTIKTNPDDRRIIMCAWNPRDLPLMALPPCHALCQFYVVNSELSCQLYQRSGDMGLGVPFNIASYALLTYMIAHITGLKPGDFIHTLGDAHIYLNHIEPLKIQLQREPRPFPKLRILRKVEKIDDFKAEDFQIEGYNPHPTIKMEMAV

On to `Cc1cc2nc(N)[nH]c(=O)c2n1Cc1ccc(C(=O)N[C@@H](CCC(=O)O)C(=O)O)cc1`, for which the half-inhibitory concentration (IC50) in [1] is 0.069 µM; in experiment [2], 0.23 µM; in experiment [4], 0.12 µM; in experiment [5], 0.023 µM; in experiment [6], 0.046 µM; in experiment [7], over 23 µM. The inhibition in experiment [3] is 23%. Moreover, the Ratio IC50 in [8] was 5.2.
As for `Cc1cc2nc(N)[nH]c(=O)c2n1Cc1cc(Br)cc(Br)c1`, the IC50 is over 20 µM in [1]; over 20 µM in experiment [2]; over 24 µM in [4]; 24 µM in [5]; 10 µM in experiment [6]; over 24 µM in [7]. Besides, the inhibition in experiment [3] worked out at 0%; in [9], 36%; in experiment [10] it was 0%; in experiment [11], 24%. For the same molecule, the Ratio IC50 in [8] is over 1.
As for `Cc1cc2nc(N)[nH]c(=O)c2n1Cc1ccc(F)cc1`, the IC50 in experiment [1] was 31 µM; in experiment [2] it was 22 µM; in experiment [4] it was over 37 µM; in [5], 1.8 µM; in experiment [6], 3.7 µM; in experiment [7], over 37 µM. In addition, the inhibition in [3] is 0%. Moreover, in [8], the Ratio IC50 was over 20.5.
With `COc1ccc(Cn2c(C)cc3nc(N)[nH]c(=O)c32)cc1`, the concentration for half-maximal inhibition (IC50) in [1] is 15 µM; in [2], 17 µM; in experiment [4], over 35 µM; in experiment [5], 3.5 µM; in experiment [6], 1.5 µM; in experiment [7], over 35 µM. Moreover, the inhibition in [3] stood at 0%. Further, the Ratio IC50 in experiment [8] is over 10.
`Cc1cc2nc(N)[nH]c(=O)c2n1Cc1ccc(OC(F)(F)F)cc1`: the IC50 in experiment [1] is 7.5 µM; in experiment [2], 13 µM; in [4], over 35 µM; in experiment [5], 0.3 µM; in [6], 1.3 µM; in experiment [7], over 35 µM. This molecule also came in with an inhibition in experiment [3] of 0%. The Ratio IC50 in experiment [8] was over 117.
In the case of `Cc1[nH]c2nc(N)[nH]c(=O)c2c1Sc1ccc([N+](=O)[O-])cc1`, in experiment [4], the IC50 was over 54 µM.
On to `Cc1cc2nc(N)[nH]c(=O)c2n1Cc1ccc(Cl)c(Cl)c1`, for which the IC50 in [1] was 27 µM; in [2], 27 µM; in experiment [4] it was over 32 µM; in experiment [5] it was 1.6 µM; in experiment [6], 5.4 µM; in experiment [7] it was over 32 µM. Further, the inhibition in [3] was 0%. In addition, the Ratio IC50 in experiment [8] was over 20.
Take `Cc1cc2nc(N)[nH]c(=O)c2n1Cc1ccncc1`: the IC50 in [1] is 12 µM; in experiment [2], 15 µM; in experiment [4], over 37 µM; in [5], 20 µM; in [6], 2.3 µM; in experiment [7], 39 µM. The Ratio IC50 in experiment [8] is over 1.8.
For the molecule `Cc1cc2nc(N)[nH]c(=O)c2n1Cc1ccccc1`, the IC50 in [1] is over 39 µM; in experiment [2], over 39 µM; in experiment [4] it was over 39 µM; in [5] it was 3.9 µM; in experiment [6], 20 µM; in [7] it was over 39 µM. Besides, the Ratio IC50 in experiment [8] is over 10. Besides, the inhibition in experiment [12] was determined as 0%.
Consider `Cc1cc2nc(N)[nH]c(=O)c2n1Cc1cc(Cl)cc(Cl)c1`, for which the IC50 is over 26 µM in [1]; over 26 µM in experiment [2]; over 31 µM in experiment [4]; 15 µM in experiment [5]; over 26 µM in [6]; over 31 µM in experiment [7]. Also, the inhibition in experiment [3] came out at 0%; in [13] it was 0%; in [14], 15%; in experiment [12] it was 13%. The Ratio IC50 in [8] is over 2.1.
As to `Cc1cc2nc(N)[nH]c(=O)c2n1Cc1ccc(Br)cc1`, the IC50 is 7.5 µM in [1]; 18 µM in experiment [2]; over 35 µM in experiment [4]; 0.27 µM in experiment [5]; 1.3 µM in experiment [6]; over 30 µM in experiment [7]. For the same molecule, the Ratio IC50 in [8] is over 130. Further, the inhibition in experiment [15] is 10%.
In the case of `Cc1cc2nc(N)[nH]c(=O)c2n1Cc1ccc(Cl)cc1`, the IC50 was 1.5 µM in experiment [1]; 17 µM in [2]; over 35 µM in [4]; 0.35 µM in experiment [5]; 2.9 µM in [6]; over 35 µM in experiment [7]. In experiment [3], this molecule returned an inhibition of 0%. Besides, the Ratio IC50 in experiment [8] was over 100.
As to `Cc1[nH]c2nc(N)[nH]c(=O)c2c1Sc1ccc(Cl)c(Cl)c1`, the inhibition in [16] worked out at 0%. Also, the IC50 in experiment [4] was over 62 µM.
With `Cc1cc2nc(N)[nH]c(=O)c2n1Cc1ccc([N+](=O)[O-])cc1`, the concentration for half-maximal inhibition (IC50) in experiment [1] was 14 µM; in experiment [2], 28 µM; in [4] it was 33 µM; in experiment [5], 0.33 µM; in [6] it was 1.4 µM; in experiment [7], over 33 µM. The molecule further registered an inhibition in experiment [3] of 0%. In experiment [8], the Ratio IC50 came to 100.
